According to article PMC8657898, “Cytokinin Perception in Ancient Plants beyond Angiospermae” (International Journal of Molecular Sciences, 2021):
Like-named read-outs stand apart in the source and are kept apart here.

Tests used:
[1] = molecular target: T1, PpCHK1 (Physcomitrium patens, UniProt A0A068JFF6); assay: competition of unlabeled CKs with 3H-iP, tobacco leaf microsomes expressing the receptor; format: binding
[2] = molecular target: T2, PpCHK2 (Physcomitrium patens, UniProt A0A068JG96); assay: as above; format: binding
[3] = molecular target: T3, SmCHK4a (Selaginella moellendorffii, UniProt D8R9F4); assay: as above; format: binding
[4] = molecular target: T4, SmCHK6 (Selaginella moellendorffii, UniProt D8SUD5); assay: as above; format: binding
[5] = molecular target: PaCHK1; assay: as above; format: binding, Picea abies
[6] = molecular target: PaCHK2; assay: as above; format: binding, Picea abies
[7] = system: AHK3; details: AHK3 from A. thaliana; cited from earlier work
[8] = molecular target: T1, PpCHK1; assay: direct 3H-iP binding (saturation, pH dependence), tobacco leaf microsomes; details: saturation curve of 3H-iP specific binding
[9] = molecular target: T2, PpCHK2; assay: as above; details: saturation curve of 3H-iP specific binding
[10] = molecular target: T3, SmCHK4a; assay: as above; details: saturation curve of 3H-iP specific binding
[11] = molecular target: T4, SmCHK6; assay: as above; details: saturation curve of 3H-iP specific binding
[12] = molecular target: PaCHK1; assay: as above; set-up: species or system Picea abies; details: saturation curve of 3H-iP specific binding
[13] = molecular target: PaCHK2; assay: as above; set-up: species or system Picea abies; details: saturation curve of 3H-iP specific binding
[14] = system: PpCHK3; assay: specific binding of 3H-iP, tobacco leaf microsomes; set-up: species or system Physcomitrium patens; details: PpCHK3 sensory module; expression confirmed by immunoblotting
Method: (§1) We experimentally analyzed the ligand-binding properties of CHK receptors from P. patens, S. moellendorffii, and P. abies using a radiolabeled ligand method and microsomes from tobacco leaves where these receptors were transiently expressed. Tritiated isopentenyladenine served as the labeled CK. PpCHK1 and 2 proteins from P. patens were tested in a full-length version, and otherwise sensory modules (SMs) flanked by TM helices were used. PpCHK1-3 represented canonical CHK receptor group, while PpCHK4 was a representative of the related sister group. […]
(§2) Of the eight cloned receptors, we detected no CK binding for PpCHK3 and PpCHK4, although expression of these proteins was confirmed by immunoblotting against the fused GFP domain (Figure 2). […]
(§3) pK7WGF2 and pB7FWG2 constructs were transformed to Agrobacterium tumefaciens strain GV3101 and transiently expressed in Nicotiana benthamiana leaves. […] Transient expression was assessed by means of immunoblotting of microsomal membranes with antibodies against GFP (Agrisera, AS15 2987) diluted 1:5000 as described in [15]. Background binding of ^3H-iP by endogenous CK receptors of N. benthamiana was assessed in control probes using microsomes from untreated leaves (Figure 2). […]

[15] = system: PpCHK4; assay: specific binding of 3H-iP, tobacco leaf microsomes; set-up: species or system Physcomitrium patens; details: PpCHK4 sensory module; expression confirmed by immunoblotting
Method: as §1, §2, §3

[16] = system: PpCHK3; details: previous data; cited from earlier work
[17] = PpCHK1, competition with 3H-iP, Cheng-Prusoff calculation method, ± SE, read-out: KD of CK-Receptor Complexes
[18] = PpCHK1, competition with 3H-iP, alternative calculation method (Appendix A), ± SE, read-out: KD of CK-receptor complexes
[19] = PpCHK2, competition with 3H-iP, Cheng-Prusoff calculation method, ± SE, read-out: KD of CK-Receptor Complexes
[20] = PpCHK2, competition with 3H-iP, alternative calculation method (Appendix A), ± SE, read-out: KD of CK-receptor complexes
[21] = SmCHK4a, competition with 3H-iP, Cheng-Prusoff calculation method, ± SE, read-out: KD of CK-Receptor Complexes
[22] = SmCHK4a, competition with 3H-iP, alternative calculation method (Appendix A), ± SE, read-out: KD of CK-receptor complexes
[23] = SmCHK6, competition with 3H-iP, Cheng-Prusoff calculation method, ± SE, read-out: KD of CK-Receptor Complexes
[24] = SmCHK6, competition with 3H-iP, alternative calculation method (Appendix A), ± SE, read-out: KD of CK-receptor complexes
[25] = PaCHK1, competition with 3H-iP, Cheng-Prusoff calculation method, ± SE, read-out: KD of CK-Receptor Complexes
[26] = PaCHK1, competition with 3H-iP, alternative calculation method (Appendix A), ± SE, read-out: KD of CK-receptor complexes
[27] = PaCHK2, competition with 3H-iP, Cheng-Prusoff calculation method, ± SE, read-out: KD of CK-Receptor Complexes
[28] = PaCHK2, competition with 3H-iP, alternative calculation method (Appendix A), ± SE, read-out: KD of CK-receptor complexes
[29] = KD for PaCHK1 divided by KD for PaCHK2, Table 1 values
[30] = read-out: KD of CK-Receptor Complexes
[31] = read-out: KD of CK-receptor complexes

T1 sequence (A0A068JFF6 entry or part of it): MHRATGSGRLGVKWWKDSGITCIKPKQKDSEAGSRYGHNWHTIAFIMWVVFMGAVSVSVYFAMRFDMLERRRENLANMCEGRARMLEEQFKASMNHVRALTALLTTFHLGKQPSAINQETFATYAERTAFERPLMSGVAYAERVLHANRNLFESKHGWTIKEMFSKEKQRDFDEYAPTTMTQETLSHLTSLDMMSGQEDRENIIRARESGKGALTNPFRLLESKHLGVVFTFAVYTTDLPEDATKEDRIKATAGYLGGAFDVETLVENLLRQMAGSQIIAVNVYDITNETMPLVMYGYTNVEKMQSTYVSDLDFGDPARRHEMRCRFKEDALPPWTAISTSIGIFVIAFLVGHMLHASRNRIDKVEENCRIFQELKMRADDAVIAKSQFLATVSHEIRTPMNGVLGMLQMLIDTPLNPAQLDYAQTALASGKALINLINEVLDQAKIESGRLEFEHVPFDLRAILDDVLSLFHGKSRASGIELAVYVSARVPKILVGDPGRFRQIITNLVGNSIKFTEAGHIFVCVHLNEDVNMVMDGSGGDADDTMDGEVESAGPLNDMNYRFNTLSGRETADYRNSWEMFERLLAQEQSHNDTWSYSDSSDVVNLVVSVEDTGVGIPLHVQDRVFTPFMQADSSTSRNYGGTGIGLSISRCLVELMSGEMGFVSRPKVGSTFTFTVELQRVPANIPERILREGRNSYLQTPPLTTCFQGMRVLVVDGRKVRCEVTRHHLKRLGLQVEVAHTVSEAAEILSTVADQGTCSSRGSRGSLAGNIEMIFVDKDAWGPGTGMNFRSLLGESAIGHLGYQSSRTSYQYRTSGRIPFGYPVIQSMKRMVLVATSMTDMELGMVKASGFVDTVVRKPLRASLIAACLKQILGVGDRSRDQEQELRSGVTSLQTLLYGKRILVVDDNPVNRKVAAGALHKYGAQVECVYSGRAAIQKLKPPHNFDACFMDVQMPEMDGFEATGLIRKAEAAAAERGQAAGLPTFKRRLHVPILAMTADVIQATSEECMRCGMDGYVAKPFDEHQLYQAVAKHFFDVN
T2 sequence (A0A068JG96 entry or part of it): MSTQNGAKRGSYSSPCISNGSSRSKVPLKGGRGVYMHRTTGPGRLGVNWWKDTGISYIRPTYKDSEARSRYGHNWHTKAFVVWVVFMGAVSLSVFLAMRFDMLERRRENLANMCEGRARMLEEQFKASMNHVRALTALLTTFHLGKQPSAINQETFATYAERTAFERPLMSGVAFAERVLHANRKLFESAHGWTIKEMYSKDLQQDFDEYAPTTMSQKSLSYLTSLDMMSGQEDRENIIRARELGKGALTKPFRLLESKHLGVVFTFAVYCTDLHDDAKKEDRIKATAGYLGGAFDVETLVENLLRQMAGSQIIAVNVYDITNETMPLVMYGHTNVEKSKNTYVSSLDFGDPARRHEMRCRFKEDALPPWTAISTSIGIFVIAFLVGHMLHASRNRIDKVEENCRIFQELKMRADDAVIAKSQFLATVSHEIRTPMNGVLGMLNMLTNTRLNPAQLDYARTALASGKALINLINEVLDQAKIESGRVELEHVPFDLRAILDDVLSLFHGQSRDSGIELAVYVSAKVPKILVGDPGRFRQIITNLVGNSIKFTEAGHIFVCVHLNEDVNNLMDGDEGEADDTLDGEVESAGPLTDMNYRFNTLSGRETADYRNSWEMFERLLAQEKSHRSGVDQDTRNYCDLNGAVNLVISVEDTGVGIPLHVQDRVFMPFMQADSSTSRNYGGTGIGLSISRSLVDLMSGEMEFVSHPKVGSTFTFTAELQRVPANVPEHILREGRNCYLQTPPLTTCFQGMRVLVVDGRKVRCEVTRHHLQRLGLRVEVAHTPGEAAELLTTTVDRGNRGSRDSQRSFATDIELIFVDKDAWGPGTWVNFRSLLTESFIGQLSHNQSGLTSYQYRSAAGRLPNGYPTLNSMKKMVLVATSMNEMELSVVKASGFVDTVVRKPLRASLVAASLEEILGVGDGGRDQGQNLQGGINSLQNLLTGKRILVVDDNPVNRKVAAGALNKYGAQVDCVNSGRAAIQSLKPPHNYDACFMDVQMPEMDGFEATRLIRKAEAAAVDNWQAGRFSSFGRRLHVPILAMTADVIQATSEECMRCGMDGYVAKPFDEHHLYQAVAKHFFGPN
T4 sequence (D8SUD5 entry or part of it): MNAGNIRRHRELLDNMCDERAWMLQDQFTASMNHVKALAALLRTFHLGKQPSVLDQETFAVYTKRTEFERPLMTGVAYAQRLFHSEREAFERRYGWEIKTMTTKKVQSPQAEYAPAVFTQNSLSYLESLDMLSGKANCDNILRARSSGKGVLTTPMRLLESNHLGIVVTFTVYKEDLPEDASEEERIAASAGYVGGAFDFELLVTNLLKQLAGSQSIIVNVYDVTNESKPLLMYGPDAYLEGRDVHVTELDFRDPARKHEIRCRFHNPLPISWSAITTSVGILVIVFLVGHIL
T3 sequence (D8R9F4 entry or part of it): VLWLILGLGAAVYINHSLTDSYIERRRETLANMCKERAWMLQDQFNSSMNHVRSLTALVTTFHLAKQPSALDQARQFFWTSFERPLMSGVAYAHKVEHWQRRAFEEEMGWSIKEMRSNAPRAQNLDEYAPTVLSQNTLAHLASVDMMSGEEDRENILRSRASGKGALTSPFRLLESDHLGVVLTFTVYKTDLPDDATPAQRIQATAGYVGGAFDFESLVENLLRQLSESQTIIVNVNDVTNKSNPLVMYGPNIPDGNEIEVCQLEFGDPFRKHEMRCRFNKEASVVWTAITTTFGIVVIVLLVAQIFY

c1ccc(CNc2ncnc3nc[nH]c23)cc1 [BA, benzyladenine]
Kd [1, 17]: 13.9 ± 0.1 nM
Kd [1, 18]: 12.8 ± 3 nM
Kd [2, 19]: 10.7 ± 0.5 nM
Kd [2, 20]: 14.9 ± 1.2 nM
Kd [3, 21]: 6.91 ± 0.34 nM
Kd [3, 22]: 3.2 ± 0.8 nM
Kd [4, 23]: 2.28 ± 0.7 nM
Kd [4, 24]: 2.9 ± 0.4 nM
Kd [5, 25]: 61.9 ± 1.3 nM
Kd [5, 26]: 38.4 ± 2.6 nM
Kd [6, 27]: 13.5 ± 1.6 nM
Kd [6, 28]: 12.3 ± 3.9 nM

CC(CO)CCNc1ncnc2nc[nH]c12 (stereo not drawn) [DZ, dihydrozeatin]
Kd [1, 17]: 507 ± 42 nM
Kd [1, 18]: 676 ± 14.4 nM
Kd [2, 19]: 323 ± 97 nM
Kd [2, 20]: 501 ± 74.7 nM
PaCHK1/CHK2 affinity ratio (KD1/KD2) [5, 29]: 16.8
Kd [5, 25]: 377 ± 27 nM
Kd [5, 26]: 244 ± 25.9 nM
Kd [6, 27]: 22.4 ± 2.9 nM
Kd [6, 28]: 29.1 ± 5.4 nM

O=C(Nc1ccccc1)Nc1cnns1 [TD, thidiazuron]
PpCHK1/CHK2 affinity ratio (KD1/KD2) ([1]; KD for PpCHK1 divided by KD for PpCHK2, Table 1 values): 1.83
Kd [1, 17]: 23.8 ± 5.4 nM
Kd [2, 19]: 13 ± 0.2 nM
Kd [2, 20]: 11.9 ± 2.8 nM
PaCHK1/CHK2 affinity ratio (KD1/KD2) [5, 29]: 0.1
Kd [5, 25]: 6.7 ± 0.21 nM
Kd [5, 26]: 3.8 ± 0.6 nM
Kd [6, 27]: 64.5 ± 6.4 nM
Kd [6, 28]: 244 ± 94.8 nM

C/C(=C/CNc1ncnc2nc[nH]c12)CO [cZ, cis-zeatin]
PpCHK1/CHK2 affinity ratio (KD1/KD2) [1]: 3.01
cZ/tZ KD ratio [1]: 2.79
Kd [1, 30]: 103 ± 15 nM
Kd [1, 31]: 94.4 ± 26.3 nM
cZ/tZ KD ratio [2]: 1.89
Kd [2, 30]: 34.2 ± 9.3 nM
Kd [2, 31]: 48.6 ± 9.7 nM
cZ/tZ KD ratio [3]: 2.58
Kd [3, 30]: 20.6 ± 2.6 nM
Kd [3, 31]: 20 ± 4.9 nM
Kd [4, 30]: 16.6 ± 2.4 nM
Kd [4, 31]: 39 ± 5.1 nM
PaCHK1/CHK2 affinity ratio (KD1/KD2) [5]: 23.4
cZ/tZ KD ratio [5]: 55.4
Kd [5, 30]: 419 ± 56 nM
Kd [5, 31]: 286 ± 69.4 nM
cZ/tZ KD ratio [6]: 17.0
Kd [6, 30]: 17.9 ± 2.9 nM
Kd [6, 31]: 22.7 ± 3.2 nM
cZ/tZ KD ratio (affinity for tZ exceeds that for cZ) [7]: 376 folds

CC(C)=CCNc1ncnc2nc[nH]c12 [iP, isopentenyladenine]
Kd [1, 18]: 1.2 ± 0.3 nM
Kd [2, 20]: 0.9 nM
Kd [3, 21]: 1.6 ± 0.13 nM
Kd [3, 22]: 0.8 ± 0.2 nM
Kd [4, 23]: 1.7 ± 0.16 nM
Kd [4, 24]: 2.5 ± 0.8 nM
Kd [5, 25]: 3.6 ± 0.17 nM
Kd [5, 26]: 3 ± 0.7 nM
Kd [6, 27]: 2.2 ± 0.08 nM
Kd [8]: 1.59 nM
Kd [9]: 1.45 nM
Kd [10]: 1.56 nM
Kd [11]: 1.75 nM
Kd [12]: 3.89 nM
Kd [13]: 2.03 nM
binding of labeled iP [14]: did not recognize
binding of labeled iP [15]: did not recognize

C/C(=C\CNc1ncnc2[nH]cnc12)CO [tZ, trans-zeatin]
Kd [1, 17]: 36.9 ± 2 nM
Kd [1, 18]: 24.8 ± 2.9 nM
PpCHK1/CHK2 affinity ratio (KD1/KD2) ([1]; microsomes): 2.04
Kd [2, 19]: 18.1 ± 1.5 nM
Kd [2, 20]: 12.4 ± 1.5 nM
PaCHK1/CHK2 affinity ratio (KD1/KD2) [5]: 7.21
Kd [5, 30]: 7.57 ± 0.37 nM
Kd [5, 31]: 5.9 ± 1 nM
Kd [6, 30]: 1.05 ± 0.09 nM
Kd [6, 31]: 1.3 ± 0.4 nM
binding of labeled tZ [16]: lacks the ability to bind
